{
  "source": "patent EP0710485A1",
  "about": "“use of anserine in the manufacture of a medicament for stimulating hematopoiesis” (SUNTORY LIMITED, priority 1994, dated 1996)",
  "key": {"[1]": {"tested_on": "erythrocytes", "assay": "Prevention of anemia in mice given cyclophosphamide", "assay_type": "in vivo, C57BL-mice", "procedure": "7-week old C57BL-mice were intravenously injected with cyclophosphamide (CY) in a dose of 300 mg/kg. L-anserine (Ans) was subcutaneously administered every day in a dose of 100 mg/kg from the day on which cyclophosphamide was administered. After 1, 3, 5, 7 and 9 days from the administration of cyclophosphamide (for L-anserine, after 3, 5 and 7 days), blood samples were taken from the orbital venosus plexus of the mouse, and the number of erythrocyte and the amount of hemoglobin were measured by an automatic hemacytometer. The experiment was carried out using three mice per experimental group, and the results are shown as mean ± standard error."}, "[2]": {"tested_on": "colony stimulating activity (CSA) in serum", "assay": "Colony stimulating activity (CSA) in serum of cyclophosphamide-treated mice", "quoted_text": "300 mg/kg dose of cyclophosphamide (CY) was intravenously injected into 7-week-old ICR mice. 100 mg/kg dose of L-anserine (Ans) was subcutaneously injected every day from the day on which cyclophosphamide was administered. On the first, third, fifth, seventh and ninth days from the administration of cyclophosphamide (on the third, fifth and seventh day for the group to which Ans was administrated), the mouse serum was taken, and colony stimulating activity (CSA) was measured. For a CSA assay in serum, 50 µl of CSA assay serum was added to a medium comprising 50 µl of bone marrow cells (1.5 × 10^6 cells/ml) aseptically recovered from the femur of a normal female ICR mouse, 200 µl of FCS, 450 µl of 0.6% agar and 300 µl of × 2 DMEM, and the mixture was stirred and cultured in 5% CO2 at 37°C for 10 days, a cell mass comprising at least 30 cells was counted as one colony, and the number of the colonies was defined as the CSA of a serum."}, "[3]": {"tested_on": "IL-3", "assay": "IL-3 productivity of spleen cells of cyclophosphamide-treated mice (FDCP-2 cell MTT assay)", "assay_type": "in vivo, ICR mice", "conditions": "for productivity of IL-3 by spleen cells: CY 300 mg/kg i.v. alone; for IL-3 productivity of the spleen cells: CY 300 mg/kg i.v. + L-anserine 100 mg/kg every day", "procedure": "300 mg/kg dose of cyclophosphamide (CY) was intraveously injected to 7-week old ICR mice. To L-anserine (Ans)-administration group, 100 mg/kg dose of L-anserine was administrated every day from the day on which cyclophosphamide was administrated. On the third, fifth and seventh days from the administration of cyclophosphamide, spleen cells of the mouse were taken and the cells (5 × 10^6 cells/ml) were cultured in a 10% FCS-RPMI 1640 medium supplemented with 2 µg/ml of concanavalin A for 24 hours, and the supernatant was assayed for IL-3. The IL-3 activity was measured by plating 1×10^4 cells/well of IL-3 dependent FDCP-2 cells on a 96 well microtiter plate, adding twofold stepwise-diluted supernatant to the wells, culturing the cells for 24 hours, and measuring a ratio of surviving FDCP-2 cells by MTT assay using 3-(4,5-dimethylthyazol-2yl)-2,5-diphenyl tetrazolium bromide. Using a culture supernatant of WEHI cells as IL-3 standard, a concentration of IL-3 which provides 50% growth per the maximum growth of the cultured FDCP-2 cells was defined as 1 unit, and I L-3 activity of a sample was obtained by calculating a sample dilution ratio which provides 50% of the maximum absorption in the standard curve."}, "[4]": {"tested_on": "bone marrow cells", "assay": "Spontaneous proliferation of bone marrow cells (3H-thymidine uptake) from cyclophosphamide-treated mice", "assay_type": "in vivo, ICR mice", "procedure": "300 mg/kg dose of cyclophosphamide (CY) was intraveously injected into 7-week-old ICR mice. […] The number of cells per femur for each mouse was counted, and the bone marrow cells for each test group were plated on a 96-well microplate (2 X 100,000 cells/well), and at the same time 0.5µ Ci/well of ^3H-thymidine was added. The cells were cultured for 5 hours, and radioactivity (C.P.M) was measured with a liquid scintillation counter. An experiment was carried out using 3 animals per group, and the results are shown by mean value ± standard error. Spontaneous proliferation ability of bone marrow cells for each group was shown in the parentheses by percentage by taking spontaneous proliferation of bone marrow cells at 0 day (untreated) as 100%."}, "[5]": {"tested_on": "leukocytes", "assay": "Leukocyte number recovery in mice given cyclophosphamide", "assay_type": "in vivo, C57BL mice", "conditions": "for The number of leukocytes: Ans 100 mg/kg s.c. every day where given, mean ± standard error, 5 animals", "excerpt": "On the seventh, eighth and ninth days from the administration of cyclophosphamide blood samples were taken from the orbital venosus plexus of the mouse, and the number of leukocytes was counted by an automatic hemacytometer."}, "[6]": {"tested_on": "erythrocytes", "assay": "Treatment of anemia in mice irradiated with X-ray", "assay_type": "in vivo, C57BL/mice", "conditions": "4.0 Gy X-ray; L-anserine 100 mg/kg s.c. for 10 days; 14th day from irradiation", "procedure": "7-week old C57BL/mice were systemically irradiated with 4.0 Gy of X-ray. L-anserine was subcutaneously injected continuously for 10 days from the day on which X-ray was irradiated in a dose of 100 mg/kg. On 14th day from the irradiation of X-ray, blood samples were taken from the orbital venosus plexus of mice, and the number of erythrocytes and amount of hemoglobin were measured by an automatic hemacytometer. The experiment used three mice for one experimental group, and the results are shown as mean ± standard error."}, "[7]": {"tested_on": "mouse bone marrow cells", "assay": "Colony Forming Unit in Spleen (CFU-s), transplant method, in X-ray irradiated mice", "assay_type": "in vivo, C57BL/6 mouse", "conditions": "X-ray 6 Gy, 5 x 10^4 bone marrow cells transplanted, spleen colonies after eight days; L-anserine 100 mg/kg s.c. every day to the seventh day; versus X-ray control group", "procedure": "Colony Forming Unit in Spleen (CFU-s) of mouse bone marrow cells in mouse radiated with X-ray was carried out using a transplant method. The X-ray radiation was carried out using an MBR-1520 type R X-ray radiation apparatus manufactured by Hitachi Medico. The mice were irradiated with X-rays such that the radiation dose rate was 1.16 Gy/min (150 kV, 20 mA, Filter: 0.5 mm Al + 0.1 mm Cu), and the radiation dose was 6 Gy. 5 × 10^4 bone marrow cells of normal C57BL/6 mouse were injected into a tail vein of a radiated recipient female C57BL/6 mouse. Eight days later, the spleen of the mouse was removed and fixed with Bouin solution, and the number of cell colonies formed on the spleen surface were counted. To the L-anserine-administration group 100 mg/kg dose of L-anserine was subcutaneously administrated every day from the day on which X-ray was radiated to the seventh day, and to the chicken extract-administration group 0.5 ml/head dose of chicken extract containing 2mg/ml of L-anserine was orally administrated every day from the day on which X-ray was radiated to the seventh day."}, "[8]": {"conditions": "CY 300 mg/kg i.v. alone, third to seventh days"}, "[9]": {"conditions": "CY 300 mg/kg i.v. + L-anserine 100 mg/kg s.c. every day, third day to seventh day"}},
  "data": [
    {"compound": "O=P1(N(CCCl)CCCl)NCCCO1", "note": "(centres unmarked) [CY, cyclophosphamide]", "values": [
      {"measurement": "amount of hemoglobin", "setting": "[1]; [8]", "value": "decrease, resulting in anemia"},
      {"measurement": "number of erythrocytes", "setting": "[1]; [8]", "value": "decrease, resulting in anemia"},
      {"measurement": "colony stimulating activity (CSA) in serum", "setting": "[2]; CY 300 mg/kg i.v. alone, after the third day", "value": "the inhibition was compensated by stimulation of CSA"},
      {"measurement": "colony stimulating activity (CSA) in serum", "setting": "[2]; CY 300 mg/kg i.v. alone, first day", "value": "inhibited"},
      {"measurement": "productivity of IL-3 by spleen cells", "setting": "[3]; first to third days", "value": "inhibited"},
      {"measurement": "productivity of IL-3 by spleen cells", "setting": "[3]; on and after the fifth day, versus normal conditions", "value": "increase of IL-3 productivity by two times"},
      {"measurement": "spontaneous proliferation ability of bone marrow cells", "setting": "[4]; CY 300 mg/kg i.v. alone, fifth day", "value": "once recovered to the normal level"},
      {"measurement": "spontaneous proliferation ability of bone marrow cells", "setting": "[4]; CY 300 mg/kg i.v. alone, first to third days", "value": "remarkably inhibited"},
      {"measurement": "spontaneous proliferation ability of bone marrow cells", "setting": "[4]; CY 300 mg/kg i.v. alone, seventh to ninth days", "value": "again decreased"},
      {"measurement": "The number of leukocytes", "setting": "[5]; 7 days after CY 300 mg/kg i.v.", "value": "32.8 ± 8.0 X 100/µl"},
      {"measurement": "The number of leukocytes", "setting": "[5]; 8 days after CY 300 mg/kg i.v.", "value": "67.4 ± 8.1 X 100/µl"},
      {"measurement": "The number of leukocytes", "setting": "[5]; 9 days after CY 300 mg/kg i.v.", "value": "66.6 ± 7.2 X 100/µl"},
      {"measurement": "number of leukocytes", "setting": "[5]; CY 300 mg/kg i.v. alone, time course after administration", "value": "decreased immediately after the administration, and gradually recovered before the seventh to ninth day"}
    ]},
    {"compound": "Cn1cncc1C[C@H](NC(=O)CCN)C(=O)O", "note": "[L-anserine, β-alanyl-π-methyl-L-histidine]", "values": [
      {"measurement": "decrease of content of hemoglobin", "setting": "[1]; [9]", "value": "inhibited"},
      {"measurement": "decrease of the number of erythrocytes", "setting": "[1]; [9]", "value": "inhibited"},
      {"measurement": "recovery of the concentration of hemoglobin", "setting": "[6]", "value": "promoted"},
      {"measurement": "recovery of the number of erythrocytes", "setting": "[6]", "value": "promoted"},
      {"measurement": "colony stimulating activity (CSA) in serum", "setting": "[2]; CY 300 mg/kg i.v. + L-anserine 100 mg/kg s.c. every day, third day", "value": "1.5 times higher than the control group"},
      {"measurement": "colony stimulating activity (CSA) in serum", "setting": "[2]; CY 300 mg/kg i.v. + L-anserine 100 mg/kg s.c. every day, third to seventh days, versus CY alone control", "value": "higher than that of the control"},
      {"measurement": "IL-3 productivity of the spleen cells", "setting": "[3]; fifth and seventh days", "value": "1.5 times higher than the control group"},
      {"measurement": "IL-3 productivity of the spleen cells", "setting": "[3]; third to seventh days, versus CY alone control group", "value": "higher than the control group"},
      {"measurement": "spontaneous proliferation ability of bone marrow cells", "setting": "[4]; CY 300 mg/kg i.v. + L-anserine 100 mg/kg s.c. every day, third and seventh days, versus CY alone control group", "value": "at least two times higher than the control group"},
      {"measurement": "spontaneous proliferation ability of bone marrow cells", "setting": "[4]; CY 300 mg/kg i.v. + L-anserine 100 mg/kg s.c. every day, third to seventh days, versus CY alone control group", "value": "significantly higher than that of the control group"},
      {"measurement": "number of leukocytes", "setting": "[5]; CY 300 mg/kg i.v. + L-anserine 100 mg/kg s.c. every day, eighth and ninth days", "value": "~1.5 times higher than that of the control"},
      {"measurement": "number of leukocytes", "setting": "[5]; CY 300 mg/kg i.v. + L-anserine 100 mg/kg s.c. every day, seventh to ninth days, versus CY alone control group", "value": "higher than that of the control group"},
      {"measurement": "CFU-s activity", "setting": "[7]", "value": "significantly higher"}
    ]}
  ]
}
